According to patent US20240034785A1, “RXR-ALPHA BINDERS AND RXR-ALPHA/PLK1 MODULATORS” (NUCMITO PHARMACEUTICALS CO. LTD., priority 2020, published 2024):

Key:
[1] = system: primary human hepatocellular carcinoma cells; assay: Western blot analysis of primary hepatic carcinoma cells from a liver cancer patient; assay type: cell-based; settings: 10 μM for 48 hr (FIG. 63)
Protocol: Tissue samples were obtained by surgical resection and processed within 2 hr. Chen et al., Oncotarget 2016, 7, 17047-59. Samples were washed with 1×SC-2 solution, minced with fine sterile scissors and scalpel into fragments of ˜1 mm^3. They were then treated with pre-warmed collagenase type IV for 30 min at 37° C. and filtered through a 70 μm cell strainer. The pellet containing the liver cells was resuspended in ice cold SC-2 solution and triple centrifugation at 1,000 g for 10 min at 4° C. was performed in order to separate the purified hepatocyte population (pellet) from non-parenchymal cells (supernatant). The pellet contained the purified hepatocytes. The resolved single-cell suspensions were then re-suspended in a primary cell culture medium (DMEM, 20% FBS, 2 mM glutamine, 1 mM pyruvate, 10 mM HEPES, 100 units/mL penicillin/streptomycin, 0.1 mg/mL gentamicin, and […] fungizone), plated in 6-well plates coated with 5 μg/cm^2 rat tail collagen type I and maintained in culture at 37° C. and 5% CO2.

cancer cell lines = assay: Western blot analysis of mitotic arrest, apoptosis and SAC activation in cancer cell lines; assay type: cell-based, human
cancer cells = assay: Mitotic progression of cancer cells (FACS analysis); assay type: cell-based; design: inhibitory effect on mitotic progression: RXRα dependence and other cancer cell lines (FACS): dose or concentration left out as unconfirmed
Protocol: Cells were harvested by trypsin digestion, washed with PBS, and fixed with ice-cold 70% ethanol overnight at 4° C. The fixed cells were then washed twice in PBS and treated for 10 min at room temperature with 0.5 μg/mL 4-6-diamidino-2-phenylindole (DAPI) in PBS and analyzed on a FACSCAN™ flow cytometer. Flow cytometry data were analyzed using CYTEXPERT.

QSG-7701 cells = assay: Western blot analysis of QSG-7701 normal liver cells; assay type: cell-based, human; settings: 12 hr (FIG. 61)
HeLa cells = assay: MT nucleation activity at the centrosomes in cold-treated, reheated HeLa cells; assay type: cell-based, human; settings: reheated at 37° C., 10 μM (FIG. 59)
HepG2 cells = assay: Western blot analysis of liver cancer HepG2 cells; assay type: cell-based, human; settings: indicated concentration for 12 hr (FIG. 61)
HepG2 xenografts = HepG2 xenografts in nude mice; assay type: in vivo, mouse
Protocol: FIGS. 69 and 70 show the analysis of nude mice injected with HepG2 cells, where the mice were treated with compound A1 (80 mg/kg) once every two days. The tumor volume was monitored and recorded. Tumors excised at day 14 were shown in FIG. 69 and weight in FIG. 70 (±SEM; **p<0.01).
BALB/c nude mice (7-8 weeks old) were injected subcutaneously with 100 μL HepG2 cells (2×10^6). For treatment, mice were administered with compound A1 (80 mg/kg) diluted in corn oil once every two days. Body weights and tumor sizes were measured every 2 days with tumor volumes (V) calculated by the formula of (width)^2×length/2. The mice were sacrificed after 14 days of treatment and tumors were removed for additional assessments. Isolation and culture of mouse primary liver tumor cells
Livers or transplanted tumor from mouse were fixed in 4% neutral buffered formalin phosphate (pH 7.0) for periods not exceeding 24 hr and were subsequently embedded in paraffin. They were sliced into 4-μm sections for H&E (hematoxylin and eosin) staining, immunofluorescence and for immunohistochemistry. To examine hepatocytes, H&E stained-liver sections were analyzed with an image analysis system. For immunostaining, liver sections or tumor sections were incubated with an anti-γ-tubulin (1:200 dilution), anti-pS10-H3 (1:200 dilution), anti-γ-H2AX (1:200 dilution), or cleaved-caspase-3 (1:100 dilution) antibody. Positive cells or areas were counted and measured, respectively, for at least 10 fields.

[2] = system: HepG2 liver cancer and THLE-2 nontumorous liver cells; assay: Western blot analysis of HepG2 and THLE-2 cells; assay type: cell-based, human; settings: 10 μM for 12 hr (FIG. 68)

COc1ccc(CC(=O)N/N=C/c2c(O)ccc3ccccc23)cc1 [Compound A1, (E)-N′-((2-hydroxynaphthalen-1-yl)methylene)-2-(4-methoxyphenyl)acetohydrazide]
induction of mitotic arrest and apoptosis [1]: observed | apoptosis of cancer cells (cancer cell lines): induced apoptosis of cancer cells in a dose-dependent and RXRα-dependent manner | activation of the spindle assembly checkpoint (SAC), mobility-shifted BubR1 (cancer cell lines; FIGS. 61, 62 and 68): accompanied with the activation of the spindle assembly checkpoint (SAC) | nuclear morphology (mitotic catastrophe) (cancer cell lines; cancer cells treated with compound A1): exhibited multi-lobular, giant nuclear and/or highly fragmented/bursted nuclei | induction of mitotic arrest and apoptosis (cancer cell lines; various cancer cell lines (HepG2, Bel-7402, SK-Hep-1), 12 hr (FIGS. 61 and 62)): observed | mitotic progression of cancer cells (cancer cells): inhibited mitotic progression of cancer cells | inhibitory effect on mitotic progression: RXRα dependence and other cancer cell lines (FACS) (cancer cells; indicated cell lines): RXRα dependent and observed in many other cancer cell lines | effect in p-RXRα-negative noncancerous QSG-7701 cells (QSG-7701 cells): but not p-RXRα-negative noncancerous QSG-7701 cells | α-tubulin nucleation (MT nucleation activity at the centrosomes) (HeLa cells): inhibited α-tubulin nucleation | effect in p-RXRα-positive HepG2 liver cancer cells (HepG2 cells): potent effect | effects of compound A1 in normal liver tissues (HepG2 xenografts; normal liver tissues of HepG2 xenograft mice (FIG. 71)): not observed in normal liver tissues | mitotic arrest and DNA damage response in normal tissues (HepG2 xenografts; normal tissues of kidney, intestine, spleen, and heart): no effect | signs of overt toxicities (HepG2 xenografts; nude mice, 80 mg/kg once every two days, 14 days): without any signs of overt toxicities | growth of HepG2 tumor (HepG2 xenografts; nude mice, subcutaneous HepG2 xenografts, 80 mg/kg in corn oil once every two days, 14 days (FIGS. 69 and 70)): strongly inhibited the growth of HepG2 tumor | mitotic arrest, chromosome aberrations, DNA damage response, and caspase 3 activation in tumor cells (HepG2 xenografts; tumor specimens from HepG2 xenograft (FIG. 71)): induction of mitotic arrest, chromosome aberrations, DNA damage response, and caspase 3 activation in tumor cells | inducing G2/M arrest, SAC activation, and apoptosis in HepG2 versus THLE-2 cells [2]: differential effects
